Results on 33 compounds are retold here after ChEMBL document CHEMBL4190352, “Continued SAR exploration of 1,2,4-thiadiazole-containing scaffolds in the design of free fatty acid receptor 1 (GPR40) agonists” (Eur J Med Chem, 2017).

Active and inactive are the calls of the source. No cut-off for these calls is given here.

What all share (type): functional, cell-based
Experiment [1] addresses T1, Free fatty acid receptor 4 (Homo sapiens) (UniProt Q5NUL3).
T1 sequence (whole entry): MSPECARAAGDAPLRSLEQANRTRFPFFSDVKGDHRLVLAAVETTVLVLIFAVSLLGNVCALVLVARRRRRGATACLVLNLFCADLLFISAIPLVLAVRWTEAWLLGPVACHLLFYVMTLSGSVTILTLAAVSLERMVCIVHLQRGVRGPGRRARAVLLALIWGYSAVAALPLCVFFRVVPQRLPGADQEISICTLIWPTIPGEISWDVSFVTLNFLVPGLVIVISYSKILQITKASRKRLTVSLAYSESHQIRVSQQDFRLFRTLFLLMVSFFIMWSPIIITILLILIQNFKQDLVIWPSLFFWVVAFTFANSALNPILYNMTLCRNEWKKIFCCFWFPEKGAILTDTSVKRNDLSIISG
Nature of the experiment: Agonist activity at GPR120/FFA4 (unknown origin) expressed in CHO cells assessed as increase in calcium flux at 10 uM by Fluo-8 AM dye based FLIPR method. (A change in cytosolic calcium serves as a functional read-out for many receptors and channels.)

Experiment [2] has as its target T2, Free fatty acid receptor 3 (Homo sapiens) (UniProt O14843).
T2 sequence (whole entry): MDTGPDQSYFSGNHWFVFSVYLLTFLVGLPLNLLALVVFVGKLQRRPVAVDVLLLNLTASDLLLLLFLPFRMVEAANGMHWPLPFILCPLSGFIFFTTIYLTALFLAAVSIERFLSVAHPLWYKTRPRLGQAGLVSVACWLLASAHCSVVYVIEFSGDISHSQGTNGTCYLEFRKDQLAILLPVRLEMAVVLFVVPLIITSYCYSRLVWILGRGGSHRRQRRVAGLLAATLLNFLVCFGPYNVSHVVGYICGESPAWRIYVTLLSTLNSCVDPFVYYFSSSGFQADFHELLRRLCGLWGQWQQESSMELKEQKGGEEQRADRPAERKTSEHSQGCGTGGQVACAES
Nature of the experiment: Agonist activity at GPR41/FFA3 (unknown origin) expressed in CHO cells assessed as increase in calcium flux at 10 uM by Fluo-8 AM dye based FLIPR method.

The target in experiment [3] is T3, Free fatty acid receptor 2 (Homo sapiens) (UniProt O15552).
T3 sequence (whole entry): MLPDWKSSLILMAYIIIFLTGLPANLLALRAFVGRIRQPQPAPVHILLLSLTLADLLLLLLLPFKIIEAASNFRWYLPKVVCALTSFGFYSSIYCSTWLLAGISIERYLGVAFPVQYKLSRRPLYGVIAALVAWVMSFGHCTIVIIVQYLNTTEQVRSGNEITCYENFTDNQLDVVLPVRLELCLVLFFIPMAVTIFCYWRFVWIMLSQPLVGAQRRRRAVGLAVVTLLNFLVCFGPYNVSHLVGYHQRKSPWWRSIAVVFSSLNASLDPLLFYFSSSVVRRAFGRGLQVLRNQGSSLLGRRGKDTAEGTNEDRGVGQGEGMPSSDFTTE
The experiment can be described thus: Agonist activity at GPR43/FFA2 (unknown origin) expressed in CHO cells assessed as increase in calcium flux at 10 uM by Fluo-8 AM dye based FLIPR method.

Experiment [4] has as its target T4, Free fatty acid receptor 1 (Homo sapiens, UniProt O14842). Nature of the experiment: Agonist activity at human GPR40/FFA1 expressed in CHO cells assessed as increase in calcium flux at 1 uM by Fluo-8 AM dye based FLIPR method relative to 10 uM GW9508.
The target in experiment [5] is T4, Free fatty acid receptor 1. Nature of the experiment: Agonist activity at human GPR40/FFA1 expressed in CHO cells assessed as increase in calcium flux at 1 uM by Fluo-8 AM dye based FLIPR method.

T4 sequence (O14842 whole entry): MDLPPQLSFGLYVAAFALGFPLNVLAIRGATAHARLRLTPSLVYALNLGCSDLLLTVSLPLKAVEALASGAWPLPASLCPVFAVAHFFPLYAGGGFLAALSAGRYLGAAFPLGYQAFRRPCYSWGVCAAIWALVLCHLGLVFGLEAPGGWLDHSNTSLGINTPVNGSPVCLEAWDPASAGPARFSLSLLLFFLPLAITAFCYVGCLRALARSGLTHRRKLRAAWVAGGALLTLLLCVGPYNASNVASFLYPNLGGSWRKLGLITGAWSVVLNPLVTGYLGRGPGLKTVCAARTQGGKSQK

With `O=C(O)CCc1ccc(NC(=O)c2nnc(Cc3ccccc3)s2)cc1`, the outcome in experiment [1], in experiment [2] and in experiment [3] was inactive. The Activity in experiment [4] amounted to 70.1%. The EC50 (usually the concentration needed to bring the measured effect to its halfway point) in experiment [5] was 3.67 µM.
With `O=C(O)CCc1ccc(NC(=O)c2nnc(CC(c3ccccc3)c3ccc(Cl)cc3)s2)cc1` (centres undefined), the result in experiment [1], in experiment [2] and in experiment [3] was inactive. Also, in experiment [4], the Activity came out at 84.9%. Besides, the EC50 in experiment [5] turned out to be 2.71 µM.
Regarding `Cc1cccc(NC(=O)c2nnc(C(=O)Nc3ccc(OCC(=O)O)cc3)s2)c1C`, the Activity in experiment [4] was 6.6%. In addition, the EC50 in experiment [5] was greater than 10 µM.
For `Cc1cccc(OCc2nnc(C(=O)Nc3ccc(CCC(=O)O)cc3)s2)c1`, the result in experiment [1], in experiment [2] and in experiment [3] was inactive. The Activity in experiment [4] came to 82.4%. For the same compound, in experiment [5], the concentration for a half-maximal effect (EC50) worked out at 3.26 µM.
Turning to `O=C(O)COc1ccc(NC(=O)c2nnc(C(=O)Nc3ccc(F)cc3F)s2)cc1`, the Activity in experiment [4] amounted to 6.6%. Also, the 50% effective concentration (EC50) in experiment [5] was greater than 10 µM.
For the compound `O=C(O)CCc1ccc(NC(=O)c2nnc(COc3cccc(C(F)(F)F)c3)s2)cc1`, the result in experiment [1], in experiment [2] and in experiment [3] was inactive. Further, the Activity in experiment [4] is 70.1%. The EC50 in experiment [5] was 3.09 µM.
For the compound `O=C(O)COc1ccc(NC(=O)c2nnc(C(=O)Nc3ccc(Br)cc3)s2)cc1`, the Activity in experiment [4] worked out at 5.9%. The EC50 in experiment [5] is greater than 10 µM.
On to `O=C(O)CCc1ccc(NC(=O)c2nnc(CC(c3ccccc3)c3ccc4c(c3)OCO4)s2)cc1` (centres undefined), for which the outcome in experiment [1], in experiment [2] and in experiment [3] was inactive. Besides, in experiment [4], the Activity was 60.3%. Further, the EC50 in experiment [5] was determined as 4.12 µM.
Take `O=C(O)CCc1ccc(NC(=O)c2nnc(Cc3cccc(F)c3)s2)cc1`: the result in experiment [1], in experiment [2] and in experiment [3] was inactive. In addition, in experiment [4], the Activity came out at 60.3%. Further, in experiment [5], the EC50 was 5.02 µM.
Consider `Cc1ccc(NC(=O)c2nnc(C(=O)Nc3ccc(OCC(=O)O)cc3)s2)cc1`, for which the Activity in experiment [4] was determined as 7%. The EC50 in experiment [5] is greater than 10 µM.
In the same order, the values of `COc1cccc(NC(=O)c2nnc(C(=O)Nc3ccc(OCC(=O)O)cc3)s2)c1` are 9.2% and greater than 10 µM.
On the same counts, the results for `O=C(O)COc1ccc(NC(=O)c2nnc(C(=O)Nc3ccc(Cl)cc3)s2)cc1` are 4.2% and greater than 10 µM.
As for `Cc1ccc(OCc2nnc(C(=O)Nc3ccc(CCC(=O)O)cc3)s2)cc1C`, the result in experiment [1], in experiment [2] and in experiment [3] was inactive. In addition, the Activity in experiment [4] was found to be 64.9%. For the same compound, the EC50 in experiment [5] was 1.13 µM.
With `O=C(O)CCc1ccc(NC(=O)c2nnc(Cc3cccc(Cl)c3)s2)cc1`, the result in experiment [1], in experiment [2] and in experiment [3] was inactive. Besides, the Activity in experiment [4] worked out at 79.4%. Besides, in experiment [5], the EC50 was 2.39 µM.
Take `Cc1ccccc1NC(=O)c1nnc(C(=O)Nc2ccc(OCC(=O)O)cc2)s1`: in experiment [4], the Activity came out at 6.6%. Also, the EC50 in experiment [5] is greater than 10 µM.
`COc1ccc(C)cc1NC(=O)c1nnc(C(=O)Nc2ccc(OCC(=O)O)cc2)s1`: the Activity in experiment [4] came to 6.6%. Moreover, the EC50 in experiment [5] is greater than 10 µM.
In the same order, the values of `O=C(O)COc1ccc(NC(=O)c2nnc(C(=O)Nc3ccccc3)s2)cc1` are 7.8% and greater than 10 µM.
Consider `Cc1ccc(NC(=O)c2nnc(C(=O)Nc3ccc(OCC(=O)O)cc3)s2)cc1C`, for which the Activity in experiment [4] was 2.8%. The EC50 in experiment [5] was greater than 10 µM.
Regarding `O=C(O)CCc1ccc(NC(=O)c2nnc(COc3ccc(F)cc3)s2)cc1`, the result in experiment [1], in experiment [2] and in experiment [3] was inactive. Moreover, the Activity in experiment [4] was 48.5%. In addition, in experiment [5], the EC50 was found to be 5.39 µM.
In the case of `O=C(O)COc1ccc(NC(=O)c2nnc(C(=O)Nc3ccc(F)c(F)c3)s2)cc1`, the Activity in experiment [4] worked out at 6.6%. In experiment [5], the concentration for a half-maximal effect (EC50) was greater than 10 µM.
As for `Cc1ccc(C)c(OCc2nnc(C(=O)Nc3ccc(CCC(=O)O)cc3)s2)c1`, the result in experiment [1], in experiment [2] and in experiment [3] was inactive. Further, the Activity in experiment [4] turned out to be 88.2%. Also, in experiment [5], the concentration giving a half-maximal response (EC50) came out at 1.53 µM.
For the compound `CCc1ccc(OCc2nnc(C(=O)Nc3ccc(CCC(=O)O)cc3)s2)cc1`, the result in experiment [1], in experiment [2] and in experiment [3] was inactive. The Activity in experiment [4] stood at 74.4%. The EC50 in experiment [5] turned out to be 1.17 µM.
As for `CCOC(=O)c1ccc(NC(=O)c2nnc(C(=O)Nc3ccc(OCC(=O)O)cc3)s2)cc1`, the Activity in experiment [4] was determined as 9.4%. The concentration for a half-maximal effect (EC50) in experiment [5] was greater than 10 µM.
As for `Cc1ccc(OCc2nnc(C(=O)Nc3ccc(CCC(=O)O)cc3)s2)cc1`, the result in experiment [1], in experiment [2] and in experiment [3] was inactive. Besides, the Activity in experiment [4] is 76.9%. The EC50 in experiment [5] came to 2.17 µM.
Regarding `O=C(O)CCc1ccc(NC(=O)c2nnc(Cc3ccc(Cl)cc3)s2)cc1`, the outcome in experiment [1], in experiment [2] and in experiment [3] was inactive. The Activity in experiment [4] was determined as 72.3%. In experiment [5], the EC50 was determined as 2.39 µM.
For `Cc1cccc(NC(=O)c2nnc(C(=O)Nc3ccc(OCC(=O)O)cc3)s2)c1`, in experiment [4], the Activity was found to be 6%. For the same compound, the EC50 in experiment [5] is greater than 10 µM.
As to `COc1ccc(OCc2nnc(C(=O)Nc3ccc(CCC(=O)O)cc3)s2)cc1`, the outcome in experiment [1], in experiment [2] and in experiment [3] was inactive. Also, the Activity in experiment [4] amounted to 72.5%. Further, in experiment [5], the EC50 amounted to 2.43 µM.
Regarding `O=C(O)CCc1ccc(NC(=O)c2nnc(COc3ccc4c(c3)CCC4)s2)cc1`, the result in experiment [1], in experiment [2] and in experiment [3] was inactive. Also, the Activity in experiment [4] is 91.2%. The EC50 in experiment [5] amounted to 1.38 µM.
With `Cc1nnc(NC(=O)c2nnc(C(=O)Nc3ccc(OCC(=O)O)cc3)s2)s1`, the Activity in experiment [4] was 9.8%. For the same compound, the EC50 in experiment [5] was greater than 10 µM.
As to `Cc1ccccc1OCc1nnc(C(=O)Nc2ccc(CCC(=O)O)cc2)s1`, the result in experiment [1], in experiment [2] and in experiment [3] was inactive. Moreover, the Activity in experiment [4] turned out to be 89.9%. The EC50 in experiment [5] was 1.52 µM.
In the case of `O=C(O)COc1ccc(NC(=O)c2nnc(C(=O)Nc3ccc(F)cc3)s2)cc1`, the Activity in experiment [4] was 6%. Also, the EC50 in experiment [5] was greater than 10 µM.
For `O=C(O)COc1ccc(NC(=O)c2nnc(C(=O)Nc3ccccc3F)s2)cc1`, in experiment [4], the Activity turned out to be 6%. Also, the EC50 in experiment [5] is greater than 10 µM.
On the same counts, the results for `CCOC(=O)c1cccc(NC(=O)c2nnc(C(=O)Nc3ccc(OCC(=O)O)cc3)s2)c1` are 6.4% and greater than 10 µM.
